Measured values: patent publication US20230391796A1, “GLYCOSIDASE INHIBITORS AND USES THEREOF” (UNIVERSIDAD DE SEVILLA (US) -UNIVERSITY OF SEVILLE (US), priority 2020, published 2023)
Where a name gives a salt, the structure may show the parent alone.

Assays:
[1] = molecular target: β-N-acetylglucosaminidase (from jack bean); experiment: Inhibition assay against commercial β-N-acetylglucosaminidase (jack bean), p-nitrophenyl N-acetyl-β-D-glucosaminide substrate; assay type: biochemical; conditions: pH 5.5, 37° C.; average of three determinations ± s.e.m.; NI = no inhibition detected at 200 μM; read-out: Jack beans Hex
Protocol: (§1) Inhibition Assays Against Commercial β-N-acetylglucosaminidases
(§2) Inhibition constant (Ki) values were determined by spectrophotometrically measuring the residual hydrolytic activities of the glycosidases against p-nitrophenyl N-acetyl-β-D-glucosaminide. […] Each assay was performed in phosphate-citrate buffer and the reactions were initiated by addition of the enzyme to a solution of the substrate in the absence or presence of various inhibitor concentrations. The mixture was incubated for 10-30 min at 37° C. and the reaction was quenched by addition of 1 M Na2CO3. Reaction times were appropriate to obtain 10-20% conversion of the substrate in order to achieve linear rates. The absorbance of the resulting mixture was determined at 405 nm. Approximate values of Ki were determined using a fixed concentration of substrate (around the Km value for the different glycosidases) and various inhibitor concentrations. Full Ki determinations and enzyme inhibition mode were determined from the slope of Lineweaver-Burk plots and double reciprocal analysis using a Microsoft Office Excel 2007 program.

[2] = molecular target: β-N-acetylglucosaminidase (from bovine kidney); experiment: Inhibition assay against commercial β-N-acetylglucosaminidase (bovine kidney), p-nitrophenyl N-acetyl-β-D-glucosaminide substrate; assay type: biochemical; conditions: pH 5.5, 37° C.; average of three determinations ± s.e.m.; NI = no inhibition detected at 200 μM; read-out: Bovine kidney Hex
Protocol: as §1, §2

[3] = test system: Total hHex; experiment: Inhibition of total hHex; assay type: biochemical, human; conditions: IC50 for total hHexA; NI = no inhibition detected at 200 μM
[4] = molecular target: T1, Recombinant Human Hexosaminidase A (HexA) (Homo sapiens, UniProt P06865); experiment: Inhibition assay against rhHexA, 4-methylumbelliferone-N-acetyl-β-D-glucosaminide fluorescence; assay type: biochemical; conditions: IC50 for lysosomal hHexA; NI = no inhibition detected at 200 μM
T1 construct: purchased R&D Systems 6237-GH-020
T1 sequence (P06865 89-529): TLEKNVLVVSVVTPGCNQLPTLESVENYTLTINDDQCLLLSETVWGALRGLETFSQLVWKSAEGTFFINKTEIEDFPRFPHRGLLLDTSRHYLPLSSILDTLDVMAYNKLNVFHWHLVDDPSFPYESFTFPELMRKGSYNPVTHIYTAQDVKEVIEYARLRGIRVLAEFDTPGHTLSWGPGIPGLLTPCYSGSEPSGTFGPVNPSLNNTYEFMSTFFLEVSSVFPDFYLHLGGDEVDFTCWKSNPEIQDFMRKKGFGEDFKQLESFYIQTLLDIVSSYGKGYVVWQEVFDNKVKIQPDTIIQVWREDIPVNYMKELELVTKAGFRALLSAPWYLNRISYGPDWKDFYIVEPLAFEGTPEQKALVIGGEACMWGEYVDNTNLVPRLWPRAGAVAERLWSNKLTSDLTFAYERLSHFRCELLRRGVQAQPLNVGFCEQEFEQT
Protocol: Inhibition Assays Against rhHexA
Human Hexosaminidase A (HexA) enzyme, purchased from R&D Systems (cat# 6237-GH-020), were determined by measuring the fluorescent signal corresponding to the rate of hydrolytic activity against the commercially available artificial substrate, 4-Methylumbelliferone-N-acetyl-β-D-glucosaminide. HexA activity assays were performed in a buffer of 100 mM sodium citrate, 250 NaCl, pH 4.5 and 1.0 nM [HexA], then stopped after 20 minutes with a solution of 1.0 M Tris, pH 9.5 to enhance fluorescent signal. Preliminary experiments have shown that reaction rates are linear for 20 minutes after substrate addition, and that 1.0 M Tris at pH 9.5 is sufficient for stopping activity, as signal is stable after stopping. Inhibition assays were run in the presence or absence of various concentrations of inhibitors and at a fixed substrate concentration of 100 μM and 1% DMSO. First, inhibitor was serially diluted to the desired range of concentrations in 2% DMSO buffer. Next, 25 μL, of inhibitor solutions at various concentrations in 2% DMSO Buffer was added to 25 μL, of 4.0 nM enzyme and allowed to incubate at 25° C. for 5 minutes. 50 μL of 200 μM and 1% DMSO substrate was then added and allowed to react for 20 minutes. 100 μL of stop solution was added to reaction mixture, and immediately mixed and aliquoted in 45 μL triplicates to a CORNING 384 well black plate. Fluorescence signal was measured in a BioTek Neo 2 Plate reader set at excitation and emission wavelengths of 355 and 450 nm, respectively. % Activity was subsequently calculated for each inhibitor concentration against the fluorescence signal of uninhibited HexA. […]

Ki [1] [µM]	Ki [2] [µM]	IC50 [3] [µM]	IC50 [4] [µM]	Compound
> 200	> 200	> 200	> 200	CCCNC(=S)N[C@H]1CN2/C(=N/Cc3ccccc3)SC[C@@H]2[C@@H](O)[C@@H]1O [Compound 19, 2-Propylthioureido-5-N,6-S-(N′-benzyliminomethylidene)-1,2-dideoxy-6-thionojirimycin]
> 200	> 200	> 200	> 200	CCCC(=O)N[C@H]1CN2/C(=N/Cc3ccccc3)SC[C@@H]2[C@@H](O)[C@@H]1O [Compound 17, 2-Butanamido-5-N,6-S-(N′-benzyliminomethylidene)-1,2-dideoxy-6-thionojirimycin]
> 200	> 200	> 200	> 200	CCC(=O)N[C@H]1CN2/C(=N/Cc3cccc4ccccc34)SC[C@@H]2[C@@H](O)[C@@H]1O [Compound 14, 2-Propionamido-5-N,6-S-(N′-1-naphthylmethyliminomethylidene)-1,2-dideoxy-6-thionojirimycin hydrochloride]
> 200	> 200	> 200	> 200	CC(C)C(=O)N[C@H]1CN2/C(=N/Cc3ccccc3)SC[C@@H]2[C@@H](O)[C@@H]1O [Compound 16, 2-Isobutanamido-5-N,6-S-(N′-benzyliminomethylidene)-1,2-dideoxy-6-thionojirimycin Hydrochloride]
> 200	> 200	> 200	> 200	CCC(=O)N[C@H]1CN2/C(=N/Cc3ccc4[nH]ccc4c3)SC[C@@H]2[C@@H](O)[C@@H]1O [Compound 15, 2-Propionamido-5-N,6-S-(N′-5-indolylmethyliminomethylidene)-1,2-dideoxy-6-thionojirimycin hydrochloride]
> 200	> 200	> 200	> 200	CCNC(=S)N[C@H]1CN2/C(=N/Cc3ccccc3)SC[C@@H]2[C@@H](O)[C@@H]1O [Compound 18, 2-Ethylthioureido-5-N,6-S-(N′-benzyliminomethylidene)-1,2-dideoxy-6-thionojirimycin]
> 200	> 200	> 200	> 200	CCC(=O)N[C@H]1CN2/C(=N/Cc3ccccc3)SC[C@@H]2[C@@H](O)[C@@H]1O [Compound 13, 2-Propanamido-5-N,6-S-(N′-benzyliminomethylidene)-1,2-dideoxy-6-thionojirimycin Hydrochloride]
